In the experiment the target is Cholinesterases; ACHE & BCHE (Homo sapiens) (UniProt P06276+P22303). The experiment can be described thus: Selectivity ratio of IC50 for human BChE over IC50 for human AChE by Ellman method. (In Ellman's method for cholinesterases, released thiocholine reacts with DTNB.)
Cholinesterases; ACHE & BCHE (Homo sapiens), sequence (P06276 whole entry, looked up): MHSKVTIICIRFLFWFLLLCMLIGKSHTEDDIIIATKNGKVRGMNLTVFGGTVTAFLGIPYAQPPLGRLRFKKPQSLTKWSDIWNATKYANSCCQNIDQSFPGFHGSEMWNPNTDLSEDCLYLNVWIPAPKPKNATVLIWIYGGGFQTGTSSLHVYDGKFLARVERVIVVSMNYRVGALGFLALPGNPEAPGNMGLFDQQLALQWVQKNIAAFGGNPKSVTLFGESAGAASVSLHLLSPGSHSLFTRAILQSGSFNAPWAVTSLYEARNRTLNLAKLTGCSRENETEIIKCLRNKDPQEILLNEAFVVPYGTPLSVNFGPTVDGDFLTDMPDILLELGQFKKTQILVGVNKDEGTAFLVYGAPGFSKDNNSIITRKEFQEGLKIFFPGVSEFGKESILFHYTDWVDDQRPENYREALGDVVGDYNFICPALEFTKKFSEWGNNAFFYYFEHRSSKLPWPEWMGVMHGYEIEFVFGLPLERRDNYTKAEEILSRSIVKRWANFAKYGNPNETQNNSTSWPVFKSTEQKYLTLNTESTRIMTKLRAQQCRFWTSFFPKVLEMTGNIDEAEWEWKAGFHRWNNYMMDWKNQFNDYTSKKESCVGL
Cholinesterases; ACHE & BCHE (Homo sapiens), sequence (P22303 whole entry, looked up): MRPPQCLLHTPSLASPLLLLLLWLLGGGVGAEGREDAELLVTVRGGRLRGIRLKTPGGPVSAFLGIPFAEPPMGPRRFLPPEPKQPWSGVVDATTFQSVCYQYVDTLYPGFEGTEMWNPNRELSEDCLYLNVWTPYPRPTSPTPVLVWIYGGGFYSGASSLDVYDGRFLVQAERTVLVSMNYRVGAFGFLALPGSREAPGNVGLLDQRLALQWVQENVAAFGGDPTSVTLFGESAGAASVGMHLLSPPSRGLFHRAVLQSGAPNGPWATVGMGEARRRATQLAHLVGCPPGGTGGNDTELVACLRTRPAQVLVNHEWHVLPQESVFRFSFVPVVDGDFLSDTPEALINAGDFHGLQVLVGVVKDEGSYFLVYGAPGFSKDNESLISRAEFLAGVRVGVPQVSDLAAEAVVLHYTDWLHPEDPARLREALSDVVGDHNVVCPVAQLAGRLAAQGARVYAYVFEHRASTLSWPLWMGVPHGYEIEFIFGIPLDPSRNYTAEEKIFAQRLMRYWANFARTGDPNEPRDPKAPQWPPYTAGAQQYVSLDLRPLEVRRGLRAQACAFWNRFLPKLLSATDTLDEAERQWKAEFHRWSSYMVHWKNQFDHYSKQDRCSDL

For `O=P(O)(NN1CCCCC1)Oc1ccccc1`, the Ratio IC50 came out at 4.
